Test results as given in ChEMBL document CHEMBL6078680, “Improving the Stability and Anti-Infective Activity of Sea Turtle AMPs Using Multiple Structural Modification Strategies” (J Med Chem, 2024).
Activity calls are given as the source filed them. The rule behind the calls is not given here. Positions of bridges follow the written chain, without caps; N, C: chain ends. Non-standard residues stand in square brackets, D forms with d. Residues, ends and D or L forms follow the SMILES beside them. Orn = NCCC[C@H](N)C(=O)O

How the values were obtained:
Escherichia coli [1] = test: Antibacterial activity against Escherichia coli ATCC 25922 assessed as increase in intracellular ROS production at 1 times MIC by DCFH-DA staining based assay; assay type: functional, organism-based
Escherichia coli [2] = test: Antimicrobial activity against Escherichia coli ATCC 25922 assessed as fold increase in MIC incubated for 18 hrs in presence of cardiolipin; assay type: functional
Staphylococcus aureus [3] = test: Antibacterial activity against Staphylococcus aureus CMCC 26003 assessed as increase in intracellular ROS production incubated for 1 hr by DCFH-DA staining based assay; assay type: functional, organism-based
Acinetobacter baumannii [4] = test: Antimicrobial activity against Acinetobacter baumannii ATCC19606 assessed as reduction in microbial growth incubated for 18 hrs by broth microdilution method; assay type: functional
HaCaT = test: Cytotoxicity against human HaCaT cells assessed as survival rate at 100 microg/ml; assay type: functional; conditions: read-out: Survival
Acinetobacter baumannii [5] = test: Antibiofilm activity against Acinetobacter baumannii ATCC 19606 assessed as inhibition of biofilm formation incubated for 48 hrs by crystal violet staining based analysis; assay type: functional, organism-based
Escherichia coli [6] = test: Antimicrobial activity against Escherichia coli ATCC 25922 assessed as fold increase in MIC incubated for 18 hrs in presence of phosphatidylglycerol; assay type: functional
Peritoneal macrophage [7] = test: Antiinflammatory activity in mouse Peritoneal macrophage cells assessed as inhibition of LPS-induced TNF-alpha production at 20 microg/ml incubated for 6 hrs by ELISA analysis; assay type: functional, cell-based; conditions: dose 20.0 µg/ml
Acinetobacter baumannii [8] = test: Antimicrobial activity against Acinetobacter baumannii ATCC 19606 assessed as fold increase in MIC incubated for 18 hrs in presence of LPS; assay type: functional
Acinetobacter baumannii [9] = test: Antimicrobial activity against Acinetobacter baumannii ATCC 19606 assessed as fold increase in MIC incubated for 18 hrs in presence of cardiolipin; assay type: functional
Staphylococcus aureus [10] = test: Antimicrobial activity against Staphylococcus aureus ATCC 43300 assessed as reduction in microbial growth incubated for 18 hrs by broth microdilution method; assay type: functional
Trypsin [11] = target: T1, Trypsin (Homo sapiens, UniProt P07477+P07478+P35030); test: Stability of compound assessed as trypsin (unknown origin) mediated drug degradation […] measured at 6 hrs by RP-HPLC analysis; assay type: ADME, protein assay; conditions: read-out: Activity
Escherichia coli [12] = test: Antimicrobial activity against Escherichia coli ATCC 25922 assessed as reduction in microbial growth incubated for 18 hrs by broth microdilution method; assay type: functional
Acinetobacter baumannii [13] = test: Antimicrobial activity against Acinetobacter baumannii ATCC 19606 assessed as fold increase in MIC incubated for 18 hrs in presence of phosphatidylglycerol; assay type: functional
Acinetobacter baumannii [14] = test: In vivo antibacterial activity against Acinetobacter baumannii ATCC19606 infected in BALB/c mouse assessed as reduction in bacterial load in liver at 15 mg/kg, ip measured after 12 hrs; assay type: functional, organism-based
Acinetobacter baumannii [15] = test: Antibiofilm activity against Acinetobacter baumannii ATCC 19606 assessed as inhibition of biofilm formation at 4 to 8 times MIC incubated for 48 hrs by crystal violet staining based analysis; assay type: functional
Acinetobacter baumannii [16] = test: In vivo antibacterial activity against Acinetobacter baumannii ATCC19606 infected in BALB/c mouse assessed as reduction in bacterial load in kidney at 15 mg/kg, ip measured after 12 hrs; assay type: functional, organism-based
Escherichia coli [17] = test: Antimicrobial activity against Escherichia coli ATCC 25922 assessed as fold increase in MIC incubated for 18 hrs in presence of LPS; assay type: functional
Cell membrane [18] = test: Induction of […] membrane permeabilization in Escherichia coli ATCC 25922 at 5 times MIC measured for 1 hr by NPN-dye based fluorescence analysis; assay type: subcellular
Peritoneal macrophage [19] = test: Cytotoxicity against mouse Peritoneal macrophage cells assessed as survival rate at 100 microg/ml; assay type: functional; conditions: read-out: Survival
Acinetobacter baumannii [20] = test: In vivo antibacterial activity against Acinetobacter baumannii ATCC19606 infected in BALB/c mouse assessed as reduction in bacterial load in kidney at 15 mg/kg, ip measured after 3 hrs; assay type: functional, organism-based
[21] = Acute toxicity in BALB/c mouse assessed as mortality at 20 mg/kg, iv measured for 24 hrs; assay type: organism-based; conditions: in vivo, read-out: Activity
Cell membrane [22] = test: Induction of cell membrane permeabilization in Escherichia coli ATCC 25922 by propidium iodide dye-based fluorescence assay; assay type: subcellular
Cell membrane [23] = test: Induction of cell membrane permeabilization in Staphylococcus aureus CMCC 26003 at 5 times MIC measured for 1 hr by propidium iodide dye-based fluorescence assay; assay type: subcellular
RAW264.7 = test: Cytotoxicity against mouse RAW264.7 cells upto 200 microg/ml by MTT assay; assay type: toxicity, cell-based; conditions: dose < 200 µg/ml
Cell membrane [24] = test: Induction of cell membrane permeabilization in Escherichia coli ATCC 25922 at 2 times MIC measured for 1 hr by propidium iodide dye-based fluorescence assay; assay type: subcellular
Acinetobacter baumannii [25] = test: In vivo antibacterial activity against Acinetobacter baumannii ATCC19606 infected in BALB/c mouse assessed as reduction in bacterial load in abdominal cavity at 15 mg/kg, ip measured after 12 hrs; assay type: functional, organism-based
Cell membrane [26] = test: Induction of outer membrane permeabilization in Escherichia coli ATCC 25922 at 5 times MIC measured for 1 hr by NPN-dye based fluorescence analysis; assay type: subcellular
Acinetobacter baumannii [27] = test: Antipersister-activity against Acinetobacter baumannii ATCC 19606 assessed as elimination of persister cells at 4 times MIC preincubated adherent persistent cells with colistin incubation for 24 hrs; assay type: functional
Trypsin [28] = target: T1, Trypsin; test: Stability of compound assessed as trypsin (unknown origin) mediated drug degradation […] measured at 24 hrs by RP-HPLC analysis; assay type: ADME, protein assay; conditions: read-out: Activity
Escherichia coli [29] = test: Antibacterial activity against Escherichia coli ATCC 25922 at 1 times MIC in presence of 25 microg/ml exogenous DNA; assay type: functional, organism-based

In the case of `CC[C@H](C)[C@H](NC(=O)[C@H](CCCNC(=N)N)NC(=O)[C@H](CO)NC(=O)[C@@H]1CSSC[C@H](N)C(=O)N[C@@H](Cc2ccccc2)C(=O)N[C@@H](CCCCN)C(=O)N[C@@H](CCCCN)C(=O)N[C@@H](C(C)C)C(=O)N[C@@H](CCCNC(=N)N)C(=O)N[C@@H](CCCCN)C(=O)N[C@@H](CCC(N)=O)C(=O)N[C@@H](CC(C)C)C(=O)NCC(=O)N[C@@H](CCCNC(=N)N)C(=O)N[C@@H](C(C)C)C(=O)N[C@@H](CC(C)C)C(=O)N[C@@H](CCCNC(=N)N)C(=O)N[C@@H](Cc2c[nH]cn2)C(=O)N1)C(=O)N[C@H](C(=O)N[C@H](C(=O)NCC(=O)NCC(=O)N[C@@H](CCCNC(=N)N)C(=O)N[C@@H](CCSC)C(=O)N[C@@H](CCCNC(=N)N)C(=O)N[C@@H](Cc1ccccc1)C(=O)O)C(C)C)[C@@H](C)O` (H-CFKKVRKQLGRVLRHCSRITVGGRMRF-OH; disulfide 1-16), the Activity (Escherichia coli [1]) is reported as “Active”, the “fold change (FC)” value (Escherichia coli [2]) is reported as 8 and the Activity (Staphylococcus aureus [3]) is reported as “Dose-dependent-effect”. For the same compound, the MIC (Acinetobacter baumannii [4]) was 18.8 µg/mL, the viability at 100 µg/mL (HaCaT) was > 80% and the Activity (Acinetobacter baumannii [5]) was “Active”. The “fold change (FC)” value (Escherichia coli [6]) was 16, the Activity (Peritoneal macrophage [7]) was “Active” and the “fold change (FC)” value (Acinetobacter baumannii [8]) was 4. The “fold change (FC)” value (Acinetobacter baumannii [9]) was 8, the MIC (Staphylococcus aureus [10]) was 18.8 µg/mL and the metabolised at 6 h (Trypsin [11]) was 68%. The MIC (Escherichia coli [12]) was 4.69 µg/mL, the “fold change (FC)” value (Acinetobacter baumannii [13]) was 16 and the Activity (Acinetobacter baumannii [14]) was “Active”. The “inhibition (INH)” value (Acinetobacter baumannii [15]) was 80%, the Activity (Acinetobacter baumannii [16]) was “Active” and the “fold change (FC)” value (Escherichia coli [17]) was 4. The Activity (Cell membrane [18]) was “Active”, the viability at 100 µg/mL (Peritoneal macrophage [19]) was > 80% and the Activity (Acinetobacter baumannii [20]) was “Active”. The mortality at 24 h [21] was 100%.
For `CC[C@H](C)[C@H](NC(=O)[C@H](CCCN)NC(=O)[C@H](CO)NC(=O)[C@H](Cc1c[nH]cn1)NC(=O)[C@H](CCCN)NC(=O)[C@H](CC(C)C)NC(=O)[C@@H](NC(=O)[C@H](CCCN)NC(=O)CNC(=O)[C@H](CC(C)C)NC(=O)[C@H](CCC(N)=O)NC(=O)[C@H](CCCN)NC(=O)[C@H](CCCN)NC(=O)[C@@H](NC(=O)[C@H](CCCN)NC(=O)[C@H](CCCN)NC(=O)[C@@H](N)Cc1ccccc1)C(C)C)C(C)C)C(=O)N[C@H](C(=O)N[C@H](C(=O)NCC(=O)NCC(=O)N[C@@H](CCCN)C(=O)N[C@@H](CCSC)C(=O)N[C@@H](CCCN)C(=O)N[C@@H](Cc1ccccc1)C(=O)O)C(C)C)[C@@H](C)O` (H-F[Orn][Orn]V[Orn][Orn]QLG[Orn]VL[Orn]HS[Orn]ITVGG[Orn]M[Orn]F-OH), the Activity (Escherichia coli [1]) was “Active”, the Activity (Staphylococcus aureus [3]) was “Dose-dependent-effect” and the Activity (Cell membrane [22]) was “Dose-dependent-effect”. For the same compound, the MIC (Acinetobacter baumannii [4]) was 9.38 µg/mL, the Activity (Cell membrane [23]) was 24.6% and the Activity (Acinetobacter baumannii [5]) was “Active”. For the same compound, the Activity (Peritoneal macrophage [7]) was “Active”, the Activity (RAW264.7) was “Non-toxic” and the Activity (Cell membrane [24]) was > 90%. The “fold change (FC)” value (Acinetobacter baumannii [8]) was 16, the MIC (Staphylococcus aureus [10]) was > 100 µg/mL and the Activity (Acinetobacter baumannii [25]) was “Active”. The Activity (Cell membrane [26]) was 100%, the Activity (Acinetobacter baumannii [27]) was 74.5% and the MIC (Escherichia coli [12]) was 9.38 µg/mL. The Activity (Acinetobacter baumannii [14]) was “Active”, the Activity (Acinetobacter baumannii [16]) was “Active” and the metabolised at 24 h (Trypsin [28]) was < 60%. The “fold change (FC)” value (Escherichia coli [17]) was 16, the Activity (Escherichia coli [29]) was “inactive” and the Activity (Acinetobacter baumannii [20]) was “Active”. The mortality at 24 h [21] was 0%.
